Like-named read-outs stand apart in the source and are kept apart here.

The target in series [1] is human serum albumin (HSA) (Homo sapiens, UniProt P02768).
Experimental: The ultrafiltration assay used to quantify the binding of the ^64Cu-labeled peptides to HSA was performed as previously described for NODAGA-cLAB-TATEs. , Briefly, a constant activity amount of the radioligands (10–15 MBq) were mixed with different HSA concentrations (200 nM–1.4 mM). Aliquots were loaded into the ultrafiltration devices (4104 centrifugal filter units by Millipore; 30 000 Da nominal molecular weight limit, methylcellulose micropartition membranes) and centrifuged. After centrifugation, aliquots from the top and bottom fractions were measured in a γ-counter (PerkinElmer, Wizard^2 2480 automatic gamma counter). The retained fraction was calculated as a quotient of these measurements. The dissociation constant, K d, was calculated using the Morrison equation.
The nature of the next series: in vivo. The note with it: female, NMRI-nu/nu (Rj:NMRI-Foxn1nu/nu), mouse, iv, total radioactivity.
The next series deals with HSA (Homo sapiens, UniProt P02768). As to the kind of experiment: Kd[HSA] from SST2 saturation binding in presence of HSA, nonlinear regression with model of Blakeley et al. An excerpt:
Blakeley et al. developed a mathematical model that includes radioligand, protein (herein HSA), and target receptor (herein SST2) to derive the K d[HSA] value of the radioligand from saturation binding experiments to the target receptor in the presence of HSA. The authors specified an explicit mathematical solution for their proposed cubic equation and provided this solution also in a practical format for GraphPad Prism, which allows the analysis of experimental data but also simulations.

Details of series [2]: method as in not given. Conditions: previously characterized; ref not given; cited from earlier work.
Another series has as its system intact AR42J cells. Also on record: method as in not given. Conditions: nonlabeled ligands, ref not given; cited from earlier work.
Series [3] has as its system SST2-transfected HTC116 cells. Also on record: method as in not given. The note with it: nonlabeled ligands, ref not given; cited from earlier work.

Sequence of HSA (P02768 25-609): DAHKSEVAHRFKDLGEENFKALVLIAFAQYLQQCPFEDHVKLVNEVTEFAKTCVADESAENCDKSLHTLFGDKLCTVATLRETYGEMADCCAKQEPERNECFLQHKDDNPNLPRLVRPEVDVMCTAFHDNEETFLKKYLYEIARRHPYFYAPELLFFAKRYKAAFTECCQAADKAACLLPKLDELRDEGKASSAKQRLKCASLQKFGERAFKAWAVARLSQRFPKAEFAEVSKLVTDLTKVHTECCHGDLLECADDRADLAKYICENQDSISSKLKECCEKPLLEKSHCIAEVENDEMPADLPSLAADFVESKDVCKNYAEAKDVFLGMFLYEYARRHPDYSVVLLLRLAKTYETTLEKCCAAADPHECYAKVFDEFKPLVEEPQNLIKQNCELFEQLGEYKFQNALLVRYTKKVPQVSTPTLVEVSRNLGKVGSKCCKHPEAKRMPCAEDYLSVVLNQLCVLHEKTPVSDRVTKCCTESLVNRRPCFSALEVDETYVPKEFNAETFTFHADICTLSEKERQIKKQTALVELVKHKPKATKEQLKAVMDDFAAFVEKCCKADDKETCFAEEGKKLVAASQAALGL
Sequence of human serum albumin (HSA) (P02768 25-609): as above
Experimental for in vivo: The biodistribution of [ ^ 64 Cu]­Cu-NODAGA-cLAB­(5/6)-TATE, [ ^ 64 Cu]­Cu-NODAGA-cLAB4- scr TATE, and [ ^ 64 Cu]­Cu-DOTA-EB-TATE was assessed in a subcutaneous MPC tumor allograft model via small-animal PET imaging (Figure A–D). The time-activity curves (TACs) for tumor, kidneys, and heart are shown in Figure A–D (for TACs of muscle and liver, see Figure S6) and the calculated areas under curves (AUC0–48h) and tumor-to-tissue ratios are graphically summarized in Figure E,F, respectively.
(A–D) Time-activity curves (SUV, decay-corrected, as a function of time up to 48 h) obtained by PET acquisition are depicted (0–2 h in dynamic mode and time points 5, 24, and 48 h p.i.; the x-axes are segmented accordingly). Data shown are mean values (±SD) of a group of MPC tumor-bearing NMRI-nu/nu mice (n = 2, but for cLAB6-TATE n = 4). […] (E) Calculated AUC0–48h values. Data shown are mean values (±SD). (F) Tumor/organ ratios based in the AUC0–48h values.
A number of 4 × 10^6 MPC cells were resuspended in 40 μL of Dulbecco’s phosphate-buffered saline and injected subcutaneously into the shoulder of 7–10-week-old female nude mice (Rj:NMRI-Foxn1^nu/nu, Janvier Laboratories, Le Genest-Saint-Isle, France). General anesthesia was induced and maintained with inhalation of 10% (v/v) desflurane in 30% oxygen/air (v/v). Tumor growth was monitored using caliper measurements. Animals were sacrificed using CO2 inhalation and cervical dislocation. When diameters of MPC tumors reached 8 ± 3 mm (volumes of 65–282 mm^3), small-animal positron emission tomography (PET) was performed using the nanoScan PET/CT (Mediso Medical Imaging Systems, Budapest, Hungary) and Si78 PET/CT (BRUKER, Billerica, MA) instruments. Scanners were cross-calibrated using a syringe source containing 10 MBq of [^64Cu]­CuCl2 diluted in 2 mL of 0.01 M HCl. Each mouse (n = 2) received between 7 and 10 MBq of the respective radioligand (A m = 40 GBq/μmoL) delivered in 0.154 M NaCl via intravenous injection through a tail vein catheter within the initial 30 s after scan start. […] Standardized uptake values (SUV = [MBq detected activity/mL tissue]/[MBq injected activity/g body weight]) were determined in defined volumes of interest (VOIs) and reported as VOI-averaged SUVmean ± range [min–max]. Assuming a density of 1 g/mL for body tissues, the SUVs become dimensionless.

The compound `Cc1cc(-c2ccc(NC(=O)[C@H](CCCCNC(=O)CCN3C(=O)CC(SCCC(=O)N[C@H](Cc4ccccc4)C(=O)N[C@H]4CSSC[C@@H](C(=O)N[C@H](C(=O)O)[C@@H](C)O)NC(=O)[C@H]([C@@H](C)O)NC(=O)[C@H](CCCCN)NC(=O)[C@@H](Cc5c[nH]c6ccccc56)NC(=O)[C@H](Cc5ccc(O)cc5)NC4=O)C3=O)NC(=O)CN3CCN(CC(=O)O)CCN(CC(=O)O)CCN(CC(=O)O)CC3)c(C)c2)ccc1/N=N/c1ccc2c(S(=O)(=O)O)cc(S(=O)(=O)O)c(N)c2c1O` (some centres unmarked) [[64Cu]Cu-DOTA-EB-TATE, metal not drawn] yielded a logD of -2.26. The compound further returned a Kd in series [1] of 1200 nM. Also, in the series “in vivo”, the SUV at 24 h is 6 SUV, the SUV at 48 h was 5.6 SUV and the SUV at 72 h was found to be 5.6 SUV.

As to `C[C@@H](O)[C@H](NC(=O)[C@@H]1CSSC[C@H](NC(=O)[C@@H](Cc2ccccc2)NC(=O)CC[C@H](C(=O)O)N2CCN(CC(=O)O)CCN(CC(=O)O)CC2)C(=O)N[C@@H](Cc2ccc(O)cc2)C(=O)N[C@H](Cc2c[nH]c3ccccc23)C(=O)N[C@@H](CCCCN)C(=O)N[C@@H]([C@@H](C)O)C(=O)N1)C(=O)O` [[64Cu]Cu-NODAGA-TATE, metal not drawn], the Kd on HSA (1–100 μM HSA, read-out: Kd[HSA] derived from saturation binding, range over the HSA concentrations) was 3.9 to 108 µM; at HSA ([HSA] 1 μM, read-out: Kd[HSA] derived from saturation binding), 5.63 µM; on HSA ([HSA] 5 μM, read-out: Kd[HSA] derived from saturation binding), 4.02 µM; on HSA ([HSA] 20 μM, read-out: Kd[HSA] derived from saturation binding), 3.89 µM; on HSA ([HSA] 40 μM, read-out: Kd[HSA] derived from saturation binding) it was 16.7 µM; at HSA ([HSA] 100 μM, read-out: Kd[HSA] derived from saturation binding) it was 108 µM. For the same compound, the “log D7.4” value in series [2] is on record as −3.43.

Regarding DOTA-TATE, the IC50 in the series on intact AR42J cells is 3.46 nM; in series [3], 10.2 nM.

What is called logD is lipophilicity at a set pH, counting ionised and neutral species. Lower therefore signals lower lipophilicity. Usually IC50 stands for the point on the concentration scale where inhibition reaches its midpoint.
